# How the values were obtained:
# [1] = tested on: tumor-infiltrating T cells; assay: KPC mice, intracellular TNF-α of tumor infiltrating cells after intraperitoneal injection; assay type: in vivo; conditions: 80 μg intraperitoneal every other day for 1 month
# Protocol: FIG. 12 is a panel of flow cytometry plots showing that intraperitoneal injection of (11R)-71-85 inhibits TNF-α secretion from tumor-infiltrating T cells from KPC mice. KPC mice are genetically engineered to develop pancreatic cancer because of oncogene expression and p53 haploinsufficiency. KPC mice received intraperitoneal injections of 80 μg of either (11R)-71-85 or (11R)-Scrambled every other day for 1 month. Twenty-four hours after the last injection, tumor infiltrating cells were harvested and restimulated with PMA and ionomycin, or left unstimulated, in the presence of Golgi inhibitor for 4 hours. Expression of intracellular TNF-α was determined by flow cytometry.
# A second murine model of pancreatic cancer was used to evaluate the effect of (11R)-71-85 on cytokine secretion by tumor cells. KPC mice are genetically engineered to develop pancreatic cancer because of oncogene expression and p53 haploinsufficiency. KPC mice were administered 80 μg of either (11R)-71-85 or (11R)-Scrambled by intraperitoneal injection every other day for 1 month. Twenty-four hours after the last injection, tumor infiltrating cells were harvested and restimulated with PMA and ionomycin, or left unstimulated, in the presence of Golgi inhibitor for 4 hours. Expression of intracellular TNF-α was determined by flow cytometry (FIG. 12).
# [2] = tested on: T cells; assay: T cell proliferation after anti-CD3 and anti-CD28 stimulation; assay type: cell-based; conditions: 0.2, 0.5, 1.0, 2.0 or 4.0 μg; anti-CD3 and anti-CD28 for 2 days
# Protocol: FIG. 3 is a graph showing T cell proliferation in response to (11R)-71-85. T cells were purified from spleen and treated with different concentrations of (11R)-71-85 or control peptide (11R)-Ctrl. Cells were then washed and stimulated with anti-CD3 and anti-CD28 for 2 days and finally pulsed with 1 μCi [^3H]-thymidine 14 hours before harvesting. [^3H]-thymidine uptake was determined with a Wallac 1450 MicroBeta Liquid Scintillation Counter.
# The ability of (11R)-71-85 to inhibit T cell proliferation and inflammatory cytokine production was also evaluated. T cells were purified from spleen and treated with different concentrations (0.2, 0.5, 1.0, 2.0 or 4.0 μg) of (11R)-71-85 or the control peptide (11R)-Ctrl. Cells were then washed and stimulated with anti-CD3 and anti-CD28 for 2 days and finally pulsed with 1 μCi [^3H]-thymidine 14 hours before harvesting. [^3H]-thymidine uptake was determined with a Wallac 1450 MicroBeta Liquid Scintillation Counter.
# [3] = tested on: PANC02 tumors; assay: PANC02 pancreatic tumor model, tumor growth after intra-tumor injection; assay type: in vivo, mice; conditions: relative to control animals
# Protocol: FIGS. 9A-9C show injection of (11R)-71-85 stops the growth of established PANC02 tumors. WT C57BL/6 mice were injected with 7.5×10^5 PANC02 cells. After 16 days, mice received intra-tumor injections of (11R)-71-85 at the indicated amount or DMSO every other day. (FIG. 9A) Tumor volume from the start of injection (day 16) to day 42 in control mice and mice injected with 40 μg or 80 μg of (11R)-71-85. Sacrifice (sac.) of mice before day 42 is indicated. (FIG. 9B) weight and (FIG. 9C) appearance of the control (left) and treated (right) tumors on day 38.
# The p38 MAPK has been implicated in the growth of some tumors that cause local inflammatory responses, such as pancreatic cancer. Therefore, (11R)-71-85 was tested in a pancreatic tumor model. WT C57BL/6 mice were injected with 7.5×10^5 PANC02 cells. After 16 days, mice received intra-tumor injections of 40 μg or 80 μg (11R)-71-85 or DMSO every other day. Tumor volume from the start of injection (day 16) to day 42 in control mice and mice injected with (11R)-71-85 or DMSO was determined (FIG. 9A). Weight (FIG. 9B) and appearance (FIG. 9C) of the control and treated tumors were assessed on day 38.
substance,measurement,setting,value
"(11R)-71-85: fusion protein: 11 arginine residues added to the N-terminus of the Gadd45α 71-85 peptide (LQIHFTLIQAFCCEN; N-terminal 11 arginine; UniProt P24522 71-85, looked up, fragment)",TNF-α secretion by tumor-infiltrating T cells,[1],inhibits
same,T cell proliferation ([3H]-thymidine uptake) in response to TCR stimulation,[2],dose-dependent decrease
same,tumor volume,[3]; 40 μg or 80 μg intra-tumor every other day from day 16 to day 42,significantly decreased
same,tumor weight,"[3]; intra-tumor injection every other day, day 38",significantly decreased
